Test results: the supplement of paper PMC4862054

Tests used:
Settings in all cases: incubation time: 72 h
CAL-120 [1] = assay: drug sensitivity score (DSS), CellTiter-Glo (DSS (AUC-based score)); higher = stronger drug effect (viability inhibition or cytotoxicity); extreme values may be limits of the assay
Outline: (§1)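 Breast cancer cell lines (20 µl suspension) were seeded into 384-well plates holding compound at 5 concentrations in 10-fold steps over a compound-specific 10,000-fold range, then incubated 72 h. CellTox Green fluorescence (485/520 nm) was read first, then CellTiter-Glo luminescence after 10 min at room temperature. Each plate was normalised to 0.1 % DMSO and a positive kill control. The drug sensitivity score was calculated from the area under the fitted dose-response curve.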

DU-4475 [2] = assay: as above
Outline: as §1

HDQ-P1 [3] = assay: as above
Outline: as §1

MDA-MB-231 [4] = assay: as above
Outline: as §1

CAL-148 [5] = assay: normalised viability (% of control), CellTiter-Blue; higher = more viable cells (about 100 = DMSO control)
Procedure: (§2)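 DSRT, CellTiter-Blue viability, 72 h incubation. Signal is normalised to DMSO and benzethonium chloride controls. Value is the normalised response at dose 7.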

CAL-51 [6] = assay: as above
Procedure: as §2

CAL-85-1 [7] = assay: as above
Procedure: as §2

DU-4475 [8] = assay: as above
Procedure: as §2

HDQ-P1 [9] = assay: as above
Procedure: as §2

MDA-MB-453 [10] = assay: as above
Procedure: as §2

BT-474 = assay: normalised response (% of control), CellTox Green; higher = less cell death (100 = DMSO, 0 = benzethonium chloride kill control)
Outline: (§3)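 Plates were normalised with 0.1 % DMSO as 100 and a positive kill control as 0. Breast cancer cell lines in 20 µl suspension had been seeded into 384-well plates with compound at 5 concentrations in 10-fold steps over a compound-specific 10,000-fold range, incubated 72 h, and read for CellTox Green fluorescence (485/520 nm) followed by CellTiter-Glo luminescence. Each value is the normalised signal at a single concentration.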

BT-549 = assay: as above
Outline: as §3

CAL-120 [11] = assay: as above
Outline: as §3

CAL-148 [12] = assay: as above
Outline: as §3

CAL-51 [13] = assay: as above
Outline: as §3

CAL-85-1 [14] = assay: as above
Outline: as §3

DU-4475 [15] = assay: as above
Outline: as §3

HCC1143 = assay: as above
Outline: as §3

HCC1599 = assay: as above
Outline: as §3

HCC1937 = assay: as above
Outline: as §3

HDQ-P1 [16] = assay: as above
Outline: as §3

Hs578T = assay: as above
Outline: as §3

MCF-10A = assay: as above
Outline: as §3

MDA-MB-231 [17] = assay: as above
Outline: as §3

MDA-MB-436 = assay: as above
Outline: as §3

MDA-MB-453 [18] = assay: as above
Outline: as §3

MFM-223 = assay: as above
Outline: as §3

Structure (SMILES): C=C(c1ccc(C(=O)O)cc1)c1cc2c(cc1C)C(C)(C)CCC2(C)C [Bexarotene]
- drug sensitivity score (CAL-120 [1]): 0
- drug sensitivity score (DU-4475 [2]): 0
- drug sensitivity score (HDQ-P1 [3]): 0
- drug sensitivity score (MDA-MB-231 [4]): 0

Structure (SMILES): COc1cc2nccc(Oc3ccc(NC(=O)C4(C(=O)Nc5ccc(F)cc5)CC4)cc3)c2cc1OC [Cabozantinib]
- drug sensitivity score (CAL-120 [1]): 0
- drug sensitivity score (DU-4475 [2]): 0
- drug sensitivity score (HDQ-P1 [3]): 0
- drug sensitivity score (MDA-MB-231 [4]): 0

Structure (SMILES): N.N.[Cl][Pt][Cl] [Cisplatin]
- drug sensitivity score (CAL-120 [1]): 0
- drug sensitivity score (DU-4475 [2]): 0
- drug sensitivity score (HDQ-P1 [3]): 0
- drug sensitivity score (MDA-MB-231 [4]): 0

Structure (SMILES): N.N.[Cl][Pt][Cl] [Cisplatin] (1000 nM)
- normalised viability (CAL-148 [5]): 112%
- normalised viability (CAL-51 [6]): 104%
- normalised viability (CAL-85-1 [7]): 86.4%
- normalised viability (DU-4475 [8]): 110%
- normalised viability (HDQ-P1 [9]): 108%
- normalised viability (MDA-MB-453 [10]): 103%
- normalised response (BT-474): 103%
- normalised response (BT-549): 89.3%
- normalised response (CAL-120 [11]): 106%
- normalised response (CAL-148 [12]): 109%
- normalised response (CAL-51 [13]): 100%
- normalised response (CAL-85-1 [14]): 97.9%
- normalised response (DU-4475 [15]): 97.5%
- normalised response (HCC1143): 108%
- normalised response (HCC1599): 92%
- normalised response (HCC1937): 92.5%
- normalised response (HDQ-P1 [16]): 109%
- normalised response (Hs578T): 144%
- normalised response (MCF-10A): 123%
- normalised response (MDA-MB-231 [17]): 94.5%
- normalised response (MDA-MB-436): 98.4%
- normalised response (MDA-MB-453 [18]): 95.4%
- normalised response (MFM-223): 93.2%

Structure (SMILES): C[C@@H](Oc1cc(-c2cnn(C3CCNCC3)c2)cnc1N)c1c(Cl)ccc(F)c1Cl [Crizotinib]
- drug sensitivity score (CAL-120 [1]): 0
- drug sensitivity score (DU-4475 [2]): 0
- drug sensitivity score (HDQ-P1 [3]): 0
- drug sensitivity score (MDA-MB-231 [4]): 0

Structure (SMILES): CN(C)/N=N/c1[nH]cnc1C(N)=O [Dacarbazine]
- drug sensitivity score (CAL-120 [1]): 0.483
- drug sensitivity score (DU-4475 [2]): 0
- drug sensitivity score (HDQ-P1 [3]): 0
- drug sensitivity score (MDA-MB-231 [4]): 0

Structure (SMILES): CN(C)/N=N/c1[nH]cnc1C(N)=O [Dacarbazine] (1000 nM)
- normalised viability (CAL-148 [5]): 106%
- normalised viability (CAL-51 [6]): 85.8%
- normalised viability (CAL-85-1 [7]): 90%
- normalised viability (DU-4475 [8]): 96.2%
- normalised viability (HDQ-P1 [9]): 110%
- normalised viability (MDA-MB-453 [10]): 109%
- normalised response (BT-474): 102%
- normalised response (BT-549): 114%
- normalised response (CAL-120 [11]): 100%
- normalised response (CAL-148 [12]): 101%
- normalised response (CAL-51 [13]): 105%
- normalised response (CAL-85-1 [14]): 103%
- normalised response (DU-4475 [15]): 101%
- normalised response (HCC1143): 86.7%
- normalised response (HCC1599): 101%
- normalised response (HCC1937): 116%
- normalised response (HDQ-P1 [16]): 88.7%
- normalised response (MCF-10A): 111%
- normalised response (MDA-MB-231 [17]): 116%
- normalised response (MDA-MB-436): 77%
- normalised response (MDA-MB-453 [18]): 103%

Structure (SMILES): COc1cc2ncnc(Nc3ccc(F)c(Cl)c3)c2cc1NC(=O)/C=C/CN1CCCCC1 [Dacomitinib]
- drug sensitivity score (CAL-120 [1]): 0
- drug sensitivity score (DU-4475 [2]): 0
- drug sensitivity score (HDQ-P1 [3]): 8.45
- drug sensitivity score (MDA-MB-231 [4]): 0.139

Structure (SMILES): Cc1ccc(-n2nc(C(C)(C)C)cc2NC(=O)Nc2ccc(OCCN3CCOCC3)c3ccccc23)cc1 [Doramapimod]
- drug sensitivity score (CAL-120 [1]): 0
- drug sensitivity score (DU-4475 [2]): 0
- drug sensitivity score (HDQ-P1 [3]): 1.32
- drug sensitivity score (MDA-MB-231 [4]): 0

Structure (SMILES): C#Cc1cccc(Nc2ncnc3cc(OCCOC)c(OCCOC)cc23)c1 [Erlotinib]
- drug sensitivity score (CAL-120 [1]): 0.577
- drug sensitivity score (DU-4475 [2]): 0
- drug sensitivity score (HDQ-P1 [3]): 9.11
- drug sensitivity score (MDA-MB-231 [4]): 0

Structure (SMILES): C#Cc1cccc(Nc2ncnc3cc(OCCOC)c(OCCOC)cc23)c1 [Erlotinib] (1000 nM)
- normalised viability (CAL-148 [5]): 63%
- normalised viability (CAL-51 [6]): 92%
- normalised viability (CAL-85-1 [7]): 62.4%
- normalised viability (DU-4475 [8]): 94.8%
- normalised viability (HDQ-P1 [9]): 71.6%
- normalised viability (MDA-MB-453 [10]): 91.4%
- normalised response (BT-474): 98.3%
- normalised response (BT-549): 96.5%
- normalised response (CAL-120 [11]): 103%
- normalised response (CAL-148 [12]): 69.6%
- normalised response (CAL-51 [13]): 78.1%
- normalised response (CAL-85-1 [14]): 70.4%
- normalised response (DU-4475 [15]): 103%
- normalised response (HCC1143): 112%
- normalised response (HCC1599): 103%
- normalised response (HCC1937): 121%
- normalised response (HDQ-P1 [16]): 100%
- normalised response (Hs578T): 99.5%
- normalised response (MCF-10A): 69.5%
- normalised response (MDA-MB-231 [17]): 101%
- normalised response (MDA-MB-436): 101%
- normalised response (MDA-MB-453 [18]): 108%
- normalised response (MFM-223): 86.7%

Structure (SMILES): COc1cc([C@@H]2c3cc4c(cc3[C@@H](O[C@@H]3O[C@@H]5CO[C@@H](C)O[C@H]5[C@H](O)[C@H]3O)[C@H]3COC(=O)[C@H]23)OCO4)cc(OC)c1O [Etoposide]
- drug sensitivity score (CAL-120 [1]): 2.02
- drug sensitivity score (DU-4475 [2]): 9.9
- drug sensitivity score (HDQ-P1 [3]): 0.733
- drug sensitivity score (MDA-MB-231 [4]): 0.846

Structure (SMILES): C[C@]12CC[C@@H]3c4ccc(O)cc4C[C@@H](CCCCCCCCC[S+]([O-])CCCC(F)(F)C(F)(F)F)[C@H]3[C@@H]1CC[C@@H]2O (some centres not stated) [Fulvestrant]
- drug sensitivity score (CAL-120 [1]): 0
- drug sensitivity score (DU-4475 [2]): 0
- drug sensitivity score (HDQ-P1 [3]): 0
- drug sensitivity score (MDA-MB-231 [4]): 0
